Assay results: the supplement of paper PMC10307832

Experiments:
Assay in all cases: relative viability (nuclei count vs DMSO), 5 days (fraction); higher = more cells survive
Alisertib + Trametinib = compound: COc1cc(Nc2ncc3c(n2)-c2ccc(Cl)cc2C(c2c(F)cccc2OC)=NC3)ccc1C(=O)O [Alisertib] + CC(=O)Nc1cccc(-n2c(=O)n(C3CC3)c(=O)c3c(Nc4ccc(I)cc4F)n(C)c(=O)c(C)c32)c1 [Trametinib] (partner 0.02 µM)
Method in brief: (§1)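 Lung cancer cell lines were seeded in 1536-well plates and dosed by pin tool the next day, with either a single drug or a fixed anchor-drug dose combined with five library-drug doses (not always all listed) spaced in √10 steps. Five days later, one step fixed the cells and stained their nuclei (final 0.05% Triton X-100, 1% formaldehyde, 1 ug/ml Hoechst), and nuclei were counted on 4× images. Relative viability is the nuclei count in treated wells divided by the count in vehicle wells, and each value is the median of duplicate plates.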

Alisertib + OSI-027 = compound: COc1cc(Nc2ncc3c(n2)-c2ccc(Cl)cc2C(c2c(F)cccc2OC)=NC3)ccc1C(=O)O [Alisertib] + COc1cccc2cc(-c3nc([C@H]4CC[C@H](C(=O)O)CC4)n4ncnc(N)c34)[nH]c12 [OSI-027] (partner 0.5 µM)
Method in brief: as §1

Alisertib + Lapatinib = compound: COc1cc(Nc2ncc3c(n2)-c2ccc(Cl)cc2C(c2c(F)cccc2OC)=NC3)ccc1C(=O)O [Alisertib] + CS(=O)(=O)CCNCc1ccc(-c2ccc3ncnc(Nc4ccc(OCc5cccc(F)c5)c(Cl)c4)c3c2)o1 [Lapatinib] (partner 2 µM)
Method in brief: as §1

Alisertib + Linsitinib = compound: COc1cc(Nc2ncc3c(n2)-c2ccc(Cl)cc2C(c2c(F)cccc2OC)=NC3)ccc1C(=O)O [Alisertib] + C[C@]1(O)C[C@@H](c2nc(-c3ccc4ccc(-c5ccccc5)nc4c3)c3c(N)nccn32)C1 [Linsitinib] (partner 1 µM)
Method in brief: as §1

Row | Cell Line | relative viability (Alisertib + Trametinib; first compound 0.005 µM) | relative viability (Alisertib + Trametinib; first compound 0.01581 µM) | relative viability (Alisertib + Trametinib; first compound 0.05 µM) | relative viability (Alisertib + Trametinib; first compound 0.1581 µM) | relative viability (Alisertib + Trametinib; first compound 0.5 µM) | relative viability (Alisertib + OSI-027; first compound 0.005 µM) | relative viability (Alisertib + OSI-027; first compound 0.01581 µM) | relative viability (Alisertib + OSI-027; first compound 0.05 µM) | relative viability (Alisertib + OSI-027; first compound 0.1581 µM) | relative viability (Alisertib + OSI-027; first compound 0.5 µM) | relative viability (Alisertib + Lapatinib; first compound 0.005 µM) | relative viability (Alisertib + Lapatinib; first compound 0.01581 µM) | relative viability (Alisertib + Lapatinib; first compound 0.05 µM) | relative viability (Alisertib + Lapatinib; first compound 0.1581 µM) | relative viability (Alisertib + Lapatinib; first compound 0.5 µM) | relative viability (Alisertib + Linsitinib; first compound 0.005 µM) | relative viability (Alisertib + Linsitinib; first compound 0.01581 µM) | relative viability (Alisertib + Linsitinib; first compound 0.05 µM) | relative viability (Alisertib + Linsitinib; first compound 0.1581 µM) | relative viability (Alisertib + Linsitinib; first compound 0.5 µM)
1 | 201T | 0.732 | 0.707 | 0.707 | 0.679 | 0.278 | 0.712 | 0.762 | 0.632 | 0.249 | 0.126 | 0.94 | 1.06 | 1.05 | 0.954 | 0.458 | 0.99 | 1.07 | 1 | 0.745 | 0.348
2 | A549 | – | – | – | – | – | – | – | – | – | – | 0.812 | 0.235 | 0.148 | 0.0742 | 0.0628 | 0.556 | 0.414 | 0.139 | 0.0745 | 0.0473
3 | A-427 | 0.596 | 0.57 | 0.244 | 0.241 | 0.262 | 0.406 | 0.291 | 0.13 | 0.162 | 0.133 | 0.869 | 0.931 | 0.853 | 0.185 | 0.142 | 1.07 | 0.986 | 0.257 | 0.202 | 0.184
4 | ABC-1 | – | – | – | – | – | 0.42 | 0.375 | 0.339 | 0.195 | 0.185 | 1.22 | 1.1 | 1.05 | 0.91 | 0.616 | 0.661 | 0.707 | 0.584 | 0.416 | 0.204
5 | BEN | 1.02 | 0.976 | 0.435 | 0.286 | 0.409 | 0.296 | 0.265 | 0.24 | 0.217 | 0.158 | 0.707 | 0.585 | 0.261 | 0.203 | 0.221 | 0.83 | 0.878 | 0.259 | 0.208 | 0.205
6 | CAL-12T | 0.321 | 0.261 | 0.155 | 0.154 | 0.227 | 0.488 | 0.277 | 0.137 | 0.165 | 0.118 | 0.556 | 0.526 | 0.195 | 0.198 | 0.169 | 0.741 | 0.603 | 0.187 | 0.157 | 0.162
7 | COR-L23 | 0.609 | 0.427 | 0.221 | 0.133 | 0.125 | 0.739 | 0.661 | 0.517 | 0.133 | 0.13 | 0.929 | 0.759 | 0.47 | 0.165 | 0.124 | 0.794 | 0.799 | 0.401 | 0.178 | 0.121
8 | COR-L 105 | 0.4 | 0.407 | 0.369 | 0.325 | 0.281 | 0.59 | 0.66 | 0.546 | 0.248 | 0.267 | 0.322 | 0.413 | 0.319 | 0.223 | 0.263 | 0.879 | 0.722 | 0.682 | 0.332 | 0.241
9 | Calu-6 | – | – | – | – | – | – | – | – | – | – | 0.925 | 0.541 | 0.382 | 0.204 | 0.216 | 0.733 | 0.763 | 0.295 | 0.129 | 0.162
10 | ChaGo-K-1 | 0.772 | 0.795 | 0.213 | 0.191 | 0.159 | 0.423 | 0.537 | 0.349 | 0.138 | 0.15 | – | – | – | – | – | – | – | – | – | –
11 | EBC-1 | – | – | – | – | – | – | – | – | – | – | 0.224 | 0.21 | 0.188 | 0.178 | 0.152 | 0.678 | 0.731 | 0.211 | 0.179 | 0.147
12 | EKVX | 0.319 | 0.37 | 0.18 | 0.16 | 0.155 | 0.654 | 0.631 | 0.251 | 0.158 | 0.136 | 0.211 | 0.238 | 0.16 | 0.126 | 0.111 | 0.942 | 0.831 | 0.344 | 0.211 | 0.183
13 | EMC-BAC-2 | 0.839 | 0.681 | 0.439 | 0.347 | 0.304 | 0.334 | 0.29 | 0.231 | 0.217 | 0.178 | 0.764 | 0.813 | 0.671 | 0.267 | 0.236 | 0.752 | 0.595 | 0.298 | 0.279 | 0.202
14 | EPLC-272H | 0.258 | 0.278 | 0.275 | 0.179 | 0.158 | 0.275 | 0.282 | 0.256 | 0.131 | 0.124 | 0.756 | 0.612 | 0.846 | 0.152 | 0.112 | 0.998 | 0.865 | 0.921 | 0.3 | 0.131
15 | H3255 | 0.662 | 0.637 | 0.441 | 0.309 | 0.295 | 0.589 | 0.575 | 0.444 | 0.269 | 0.271 | 0.277 | 0.256 | 0.269 | 0.169 | 0.176 | 0.898 | 0.832 | 0.418 | 0.192 | 0.164
16 | HARA | 0.722 | 0.769 | 0.348 | 0.12 | 0.207 | 0.409 | 0.423 | 0.369 | 0.113 | 0.0564 | 0.616 | 0.631 | 0.848 | 0.129 | 0.0993 | 1.03 | 0.919 | 0.361 | 0.189 | 0.0844
17 | HCC-15 | 0.356 | 0.286 | 0.175 | 0.122 | 0.113 | 0.578 | 0.504 | 0.227 | 0.118 | 0.12 | 0.746 | 0.671 | 0.392 | 0.122 | 0.109 | 0.863 | 0.725 | 0.275 | 0.159 | 0.113
18 | HCC-44 | 0.963 | 0.931 | 0.509 | 0.4 | 0.32 | 0.465 | 0.313 | 0.368 | 0.166 | 0.186 | 0.991 | 0.922 | 0.906 | 0.242 | 0.151 | 0.73 | 0.683 | 0.42 | 0.328 | 0.113
